# Entries after “also recorded” stand apart in the source; their conditions may differ. Read-outs that look alike come from different tables or passages of the source.
# Tests used:
# [1] = Tolerability in the 16-week clinical trial of Example 1; format: in vivo, human
# Procedure: Forty-one (n=41) volunteers with an average body weight of 91.5±14.4 kgs (201+9.7 lbs), body fat of 40.4±3.7 kgs (88.8+8 lbs), liver fat content above 10% and average age of 37.4±4.8 years were recruited to take part in a 16-week clinical trial. Daily meal composition was 50% carbohydrate, 30% protein and 20% fat. Food record data, body composition, EER, and blood sample analysis results were assessed on admission and every week for 16-weeks. Energy expenditure rate (EER) was measured by indirect calorimetry. Plasma levels of inflammatory markers alanine aminotransferase (ALT), aspartate aminotransferase (AST), g-glutamyltransferase (GGT) enzymes and C-reactive protein (CRP) were evaluated as measures of liver function, along with diastolic and systolic blood pressure, dual-energy X-ray absorptiometry to determine percent of lean and fat body mass, and liver fat content.
# Subjects were randomly assigned to one of 10 treatments or placebo (total 11 groups), which were in softgel capsules and were to be consumed with water 15 to 30 mins. before meals. Each phytomedicine soft-gel capsule provided 100 mg of Undaria pinnatifida (Phaeophyceae) brown marine vegetable extract and 100 mg of cold-pressed pomegranate (Punica granatum, Punicaceae) seed oil.
# All subjects completed 16 weeks clinical trial without any reported adverse effects. […]
# [2] = Energy expenditure rate (EER) by indirect calorimetry, 16-week double-blind placebo-controlled trial in obese non-diabetic female volunteers with NAFLD (Example 1); format: in vivo, human; parameters: key to Effects on EER: NE = No effect; * = significant vs. placebo and vs. baseline, p < 0.05% at the week listed for the duration of the study; *** = significant vs. placebo and vs. baseline, p < 0.001%; settings: for Effects on EER: 16 weeks
# From the text: The objectives of the study were to investigate the effects of different doses of a brown marine vegetable extract standardized by fucoxanthin content, pomegranate seed oil containing a minimum of 70% punicic acid, and the phytomedicine combining, both of fucoxanthin and pomegranate seed oil, on energy expenditure rate (EER) in obese non-diabetic female volunteers with non-alcoholic fatty liver disease (NAFLD) on a moderate calorie restriction diet. Forty-one (n=41) volunteers with an average body weight of 91.5±14.4 kgs (201+9.7 lbs), body fat of 40.4±3.7 kgs (88.8+8 lbs), liver fat content above 10% and average age of 37.4±4.8 years were recruited to take part in a 16-week clinical trial. Daily meal composition was 50% carbohydrate, 30% protein and 20% fat. Food record data, body composition, EER, and blood sample analysis results were assessed on admission and every week for 16-weeks. Energy expenditure rate (EER) was measured by indirect calorimetry. Plasma levels of inflammatory markers alanine aminotransferase (ALT), aspartate aminotransferase (AST), g-glutamyltransferase (GGT) enzymes and C-reactive protein (CRP) were evaluated as measures of liver function, along with diastolic and systolic blood pressure, dual-energy X-ray absorptiometry to determine percent of lean and fat body mass, and liver fat content. Subjects were randomly assigned to one of 10 treatments or placebo (total 11 groups), which were in softgel capsules and were to be consumed with water 15 to 30 mins. before meals. Each phytomedicine soft-gel capsule provided 100 mg of Undaria pinnatifida (Phaeophyceae) brown marine vegetable extract and 100 mg of cold-pressed pomegranate (Punica granatum, Punicaceae) seed oil.
# [3] = fucoxanthin, cited from earlier work
# [4] = tested on: mitochondrial uncoupling protein 1 (UCP1); settings: fucoxanthin; cited from earlier work
# [5] = fucoxanthin, wistar rats; cited from earlier work
Substance,"tolerability ([1]; human, in vivo)","tolerability ([1]; 16 weeks, all subjects, no reported adverse effects)",Effects on EER vs. placebo and baseline ([2]; 8.40 mg fucoxanthin),Effects on EER vs. those of 4.20 mg fucoxanthin ([2]; 8.40 mg fucoxanthin),"minimum doses that resulted in statistically significant increases in EER ([2]; 16-week trial, fucoxanthin as mg fucoxanthin/day) [mg]",Effects on EER ([2]; Fucoxanthin 1.68 mg/day),Effects on EER ([2]; Fucoxanthin 2.52 mg/day),Effects on EER ([2]; Fucoxanthin 4.20 mg/day),Effects on EER ([2]; Fucoxanthin 8.40 mg/day),"EER in obese subjects (overall) ([2]; oral supplementation, effect dose-dependent and time-dependent)",body weight ([3]; KK-Ay mice),WAT ([3]; obese KK-Ay mice),expression of uncoupling protein UCP1 gene in white adipose tissue (WAT) [4],WAT [5]
Pomegranate Seed Oil,well tolerated,–,–,–,–,–,–,–,–,–,–,–,–,–
fucoxanthin,–,well tolerated,highly significant,significant,2.52,NE,"* (* = significant vs. placebo and vs. baseline, p < 0.05% at the week listed for the duration of the study)","* (* = significant vs. placebo and vs. baseline, p < 0.05% at the week listed for the duration of the study)","*** (*** = significant vs. placebo and vs. baseline, p < 0.001%)",increased; also recorded: statistically significant dose-dependent increase,significant reduction,reduced WAT,upregulates,reduced WAT
